Assay results reported in patent publication US6673812B1, “Preventives/remedies for glaucoma” (Senju Pharmaceutical Co., Ltd., priority 1998, dated 2004).

Tested on: Japanese white rabbits
Assay: Ophthalmic disorder caused by 8-time-a-day instillation to white rabbits: macroscopic observation of anterior segment of the eye
Type: in vivo, rabbit
Parameters: scale not given here
Conditions: mean of three eyes
Method: The test drugs, Compound A and Compound C, were each dissolved in the following base at a concentration of 0.125, 0.25, 0.5 and 1.0% and adjusted to pH 7 for use in this experiment. [table] Japanese white rabbits (body weight about 2 kg) purchased from Japan Laboratory Animals, INC. were used. These animals were bred in a breeding chamber set to temperature 23±3° C., humidity 55±10% and fed on limited amount of 100 g a day of a solid feed (Labo R Stock, Nihon-Nosan Kogyo K.K.). They were allowed free access to tap water. Instillation: Using a micropipet, each test drug (100 μl) was instilled into the right eye of each animal 8 times at one hour intervals. Into the left eye was instilled a base in the same manner. Observation: anterior segment of the eye was macroscopically observed before instillation and 30 min after 2nd, 4th, 6th and 8th administrations, according to the macroscopic criteria for ocular lesions as shown in Table 1 (Naruyuki Fukui, […] no Rinshou 4, 277-289, 1970). In addition, corneal staining spot was observed before instillation and after 8th administration. [table]

[1] = 0.5%, 30 min after 2nd instillation
[2] = 0.5%, 30 min after 4th instillation
[3] = 0.5%, 30 min after 6th instillation
[4] = 0.5%, 30 min after 8th instillation
[5] = 1.0%, 30 min after 2nd instillation
[6] = 1.0%, 30 min after 4th instillation
[7] = 1.0%, 30 min after 6th instillation
[8] = 1.0%, 30 min after 8th instillation

C[C@@H](N)c1ccc(C(=O)Nc2ccncc2)cc1.Cl.Cl [Compound C, (R)-(+)-N-(4-pyridyl)-4-(1-aminoethyl)benzamide 2HCl]
Score of ocular lesions: Conjunctiva Bulbar redness [1]: 0.50
Score of ocular lesions: Conjunctiva Discharge [1]: 0
Score of ocular lesions: Conjunctiva Nictitating membrane [1]: 0.50
Score of ocular lesions: Conjunctiva Palpebral edema [1]: 0
Score of ocular lesions: Conjunctiva Palpebral redness [1]: 0
Score of ocular lesions: Cornea Area [1]: 0
Score of ocular lesions: Cornea Degree [1]: 0
Score of ocular lesions: Iris Values [1]: 0
Score of ocular lesions: Total score [1]: 1.00
Score of ocular lesions: Conjunctiva Bulbar redness [2]: 0.50
Score of ocular lesions: Conjunctiva Discharge [2]: 0.17
Score of ocular lesions: Conjunctiva Nictitating membrane [2]: 0.33
Score of ocular lesions: Conjunctiva Palpebral edema [2]: 0.33
Score of ocular lesions: Conjunctiva Palpebral redness [2]: 0.33
Score of ocular lesions: Cornea Area [2]: 0
Score of ocular lesions: Cornea Degree [2]: 0
Score of ocular lesions: Iris Values [2]: 0.33
Score of ocular lesions: Total score [2]: 1.99
Score of ocular lesions: Conjunctiva Bulbar redness [3]: 0.67
Score of ocular lesions: Conjunctiva Discharge [3]: 1.00
Score of ocular lesions: Conjunctiva Nictitating membrane [3]: 1.00
Score of ocular lesions: Conjunctiva Palpebral edema [3]: 0.33
Score of ocular lesions: Conjunctiva Palpebral redness [3]: 0.33
Score of ocular lesions: Cornea Area [3]: 0
Score of ocular lesions: Cornea Degree [3]: 0
Score of ocular lesions: Iris Values [3]: 0
Score of ocular lesions: Total score [3]: 3.83
Score of ocular lesions: Conjunctiva Bulbar redness [4]: 1.00
Score of ocular lesions: Conjunctiva Discharge [4]: 2.00
Score of ocular lesions: Conjunctiva Nictitating membrane [4]: 1.00
Score of ocular lesions: Conjunctiva Palpebral edema [4]: 2.83
Score of ocular lesions: Conjunctiva Palpebral redness [4]: 2.00
Score of ocular lesions: Cornea Area [4]: 0
Score of ocular lesions: Cornea Degree [4]: 0
Score of ocular lesions: Iris Values [4]: 0.67
Score of ocular lesions: Total score [4]: 9.50
Score of ocular lesions: Conjunctiva Bulbar redness (0.5%, Before instillation): 0
Score of ocular lesions: Conjunctiva Discharge (0.5%, Before instillation): 0
Score of ocular lesions: Conjunctiva Nictitating membrane (0.5%, Before instillation): 0
Score of ocular lesions: Conjunctiva Palpebral edema (0.5%, Before instillation): 0
Score of ocular lesions: Conjunctiva Palpebral redness (0.5%, Before instillation): 0
Score of ocular lesions: Cornea Area (0.5%, Before instillation): 0
Score of ocular lesions: Cornea Degree (0.5%, Before instillation): 0
Score of ocular lesions: Iris Values (0.5%, Before instillation): 0
Score of ocular lesions: Total score (0.5%, Before instillation): 0
Score of ocular lesions: Conjunctiva Bulbar redness [5]: 0.50
Score of ocular lesions: Conjunctiva Discharge [5]: 0
Score of ocular lesions: Conjunctiva Nictitating membrane [5]: 0.50
Score of ocular lesions: Conjunctiva Palpebral edema [5]: 0
Score of ocular lesions: Conjunctiva Palpebral redness [5]: 0.17
Score of ocular lesions: Cornea Area [5]: 0
Score of ocular lesions: Cornea Degree [5]: 0
Score of ocular lesions: Iris Values [5]: 0
Score of ocular lesions: Total score [5]: 1.17
Score of ocular lesions: Conjunctiva Bulbar redness [6]: 0.50
Score of ocular lesions: Conjunctiva Discharge [6]: 0
Score of ocular lesions: Conjunctiva Nictitating membrane [6]: 0.50
Score of ocular lesions: Conjunctiva Palpebral edema [6]: 0.17
Score of ocular lesions: Conjunctiva Palpebral redness [6]: 0.50
Score of ocular lesions: Cornea Area [6]: 0
Score of ocular lesions: Cornea Degree [6]: 0
Score of ocular lesions: Iris Values [6]: 0.67
Score of ocular lesions: Total score [6]: 2.34
Score of ocular lesions: Conjunctiva Bulbar redness [7]: 0.67
Score of ocular lesions: Conjunctiva Discharge [7]: 0.33
Score of ocular lesions: Conjunctiva Nictitating membrane [7]: 0.83
Score of ocular lesions: Conjunctiva Palpebral edema [7]: 0.50
Score of ocular lesions: Conjunctiva Palpebral redness [7]: 0.50
Score of ocular lesions: Cornea Area [7]: 0
Score of ocular lesions: Cornea Degree [7]: 0
Score of ocular lesions: Iris Values [7]: 1.00
Score of ocular lesions: Total score [7]: 3.83
Score of ocular lesions: Conjunctiva Bulbar redness [8]: 2.00
Score of ocular lesions: Conjunctiva Discharge [8]: 2.33
Score of ocular lesions: Conjunctiva Nictitating membrane [8]: 1.67
Score of ocular lesions: Conjunctiva Palpebral edema [8]: 3.33
Score of ocular lesions: Conjunctiva Palpebral redness [8]: 2.33
Score of ocular lesions: Cornea Area [8]: 0
Score of ocular lesions: Cornea Degree [8]: 0
Score of ocular lesions: Iris Values [8]: 1.00
Score of ocular lesions: Total score [8]: 12.66
Score of ocular lesions: Conjunctiva Bulbar redness (1.0%, Before instillation): 0
Score of ocular lesions: Conjunctiva Discharge (1.0%, Before instillation): 0
Score of ocular lesions: Conjunctiva Nictitating membrane (1.0%, Before instillation): 0
Score of ocular lesions: Conjunctiva Palpebral edema (1.0%, Before instillation): 0
Score of ocular lesions: Conjunctiva Palpebral redness (1.0%, Before instillation): 0
Score of ocular lesions: Cornea Area (1.0%, Before instillation): 0
Score of ocular lesions: Cornea Degree (1.0%, Before instillation): 0
Score of ocular lesions: Iris Values (1.0%, Before instillation): 0
Score of ocular lesions: Total score (1.0%, Before instillation): 0
